According to BindingDB's records for doi:10.1021/ml300405d (Therachem Research Medilab (India), 2013):

The molecules below were run against Tyrosine-protein kinase SYK (Homo sapiens) (UniProt P43405) (assay: Inhibition of human Gst-tagged Syk expressed in sf9 cells).
For `COc1ccc(Nc2nc(N3CCC(C(=O)Nc4ccc(C(=O)O)cc4)C3)nc3scnc23)nc1OC` (stereo not drawn), the IC50 was 6150 nM.
With `COc1ccc(Nc2nc(N3CCCC(C(=O)Nc4ccc(C(=O)O)c(O)c4)C3)nc3scnc23)cc1OC` (stereo not drawn) the IC50 was 71 nM.
In the case of `CNC(=O)c1ccc(NC(=O)c2cccc(-c3nc(Nc4ccc(OC)c(OC)c4)c4ncsc4n3)c2)cc1`, the IC50 is reported as 71 nM.
